Where two headings read alike, the source gives them in different places.
How the values were obtained:
[1] = test system: S. sanguis 10556; details: for IC50: read-out: ID/50; for ID/50 (recalculated as ppm F): 1440 min
[2] = test system: S. salivarius H-257; details: for IC50: read-out: ID/50; for ID/50 (recalculated as ppm F): 1440 min
[3] = test system: S. mutans OMZ-176; details: for IC50: read-out: ID/50; for ID/50 (recalculated as ppm F): 1440 min
[4] = test system: S. salivarius SS4; details: for IC50: read-out: ID/50; for ID/50 (recalculated as ppm F): 1440 min
[5] = test system: S. mutans 6715; details: for IC50: read-out: ID/50; for ID/50 (recalculated as ppm F): 1440 min
[6] = test system: S. sanguis 10557; details: for IC50: read-out: ID/50; for ID/50 (recalculated as ppm F): 1440 min
[7] = test system: L. casei; details: for IC50: read-out: ID/50; for ID/50 (recalculated as ppm F): 1440 min
[8] = test system: cariogenic bacteria; assay: inhibition of bacterial growth, overall findings; details: all bacterial isolates tested
[9] = test system: artificial plaque; assay: in vitro antiplaque study; format: cell-based, clinical plaque samples; details: for Percentage Inhibition of Growth of Artificial Plaque: means ±95% confidence limits
Procedure: The in vitro plaque was initiated on uniformly sized aluminum plummets which were previously coated for 20 min. with wax stimulated whole saliva. These coated plummets were then placed in a Trypticase (B.B.L.) 1% sucrose growth medium inoculated with clinical plaque samples. After 5 hours of incubation at 37° C. the plummets were immersed in a solution containing equal volumes of whole saliva and the test compound for one minute and subsequently suspended overnight (37° C.) in a 20% solution of saliva supernatant. On the second day the plummets were retreated with the test solution (1 min.) and reincubated in inoculated Trypticase-sucrose growth medium for 5 hours. After this period of time the plaques were rinsed in distilled water for 5 minutes. The plaques were then removed from the plummets by sonication in 10 ml distilled water and quantitated in a Unicam SP500 spectrophotometer at 570 nm.
Five replicas per test compound were examined.

[10] = pH of solution; format: physicochemical

Al2 (SO4)3
IC50 [1]: 5550 µM
IC50 [2]: 5400 µM
IC50 [3]: 5910 µM
IC50 [4]: 7800 µM
IC50 [5]: 3560 µM
IC50 [6]: 8450 µM
IC50 [7]: 6450 µM

[Mg] [Mg]
inhibition of bacterial growth [8]: little or no effect

[Ca] [Ca]
inhibition of bacterial growth [8]: little or no effect

[Cl-].[Na+] [Na]
inhibition of bacterial growth [8]: little or no effect

[Cl][Sn][Cl] [SnCl2]
IC50 [1]: 1270 µM
IC50 [2]: 3640 µM
IC50 [3]: 3680 µM
IC50 [4]: 1450 µM
IC50 [5]: 2260 µM
IC50 [6]: 1880 µM
IC50 [7]: 3000 to 6000 µM

[Fe] [Fe]
inhibition of bacterial growth [8]: little or no effect

O=S(=O)([O-])[O-].[Zn+2] [ZnSO4]
antiplaque activity ([9]; 6.0-30.0 mM/L zinc): no difference in activity between ZnSO4 and ZnNH4 F3
Percentage Inhibition of Growth of Artificial Plaque ([9]; zinc conc. 6.0 mM/L): 47 ± 14%
Percentage Inhibition of Growth of Artificial Plaque ([9]; zinc conc. 15.0 mM/L): 51 ± 14%
Percentage Inhibition of Growth of Artificial Plaque ([9]; zinc conc. 30.0 mM/L): 64 ± 14%
IC50 [1]: 360 µM
IC50 [2]: 750 µM
IC50 [3]: 7500 µM
IC50 [4]: 6000 µM
IC50 [5]: 5740 µM
IC50 [6]: 400 µM
IC50 [7]: 10400 µM

[Mn] [Mn]
inhibition of bacterial growth [8]: little or no effect

[Cl-].[Cl-].[Co+2] [CoCl2]
IC50 [1]: 2890 µM
IC50 [2]: 550 µM
IC50 [3]: 10600 µM
IC50 [4]: 5960 µM
IC50 [5]: 7720 µM
IC50 [6]: 3840 µM
IC50 [7]: > 12000 µM

N.N.[F-].[F-].[F-].[F-].[F-].[F-].[Sn] [Sn(NH4)2 F6, stannic ammonium fluoride]
ID/50 (recalculated as ppm F) ([1]; Table III, S. sanguis 10556): 25 ppm F
IC50 ([1]; Table II, fluoride salts, S. sanguis 10556, means of triplicate experiments): 220 µM
ID/50 (recalculated as ppm F) ([2]; Table III, S. salivarius H-257): 46 ppm F
IC50 ([2]; Table II, fluoride salts, S. salivarius H-257, means of triplicate experiments): 400 µM
ID/50 (recalculated as ppm F) ([3]; Table III, S. mutans OMZ-176): 163 ppm F
IC50 ([3]; Table II, fluoride salts, S. mutans OMZ-176, means of triplicate experiments): 1430 µM
ID/50 (recalculated as ppm F) ([4]; Table III, S. salivarius SS4): 188 ppm F
IC50 ([4]; Table II, fluoride salts, S. salivarius SS4, means of triplicate experiments): 1650 µM
inhibition of bacterial growth [8]: less active than the stannous form SnF2
ID/50 (recalculated as ppm F) ([5]; Table III, S. mutans 6715): 137 ppm F
IC50 ([5]; Table II, fluoride salts, S. mutans 6715, means of triplicate experiments): 1200 µM
ID/50 (recalculated as ppm F) ([6]; Table III, S. sanguis 10557): 45 ppm F
IC50 ([6]; Table II, fluoride salts, S. sanguis 10557, means of triplicate experiments): 390 µM
ID/50 (recalculated as ppm F) ([7]; Table III, L. casei): 288 ppm F
IC50 ([7]; Table II, fluoride salts, L. casei, means of triplicate experiments): 2530 µM
pH values in solution [10]: ~3.8

SnF2
% Reduction in Dissolution (pH 4): 57%
% Reduction in Dissolution (pH 5): 54%
% Reduction in Dissolution (pH 6): 45%
% Reduction in Dissolution (pH 7): 43%
ID/50 (recalculated as ppm F) [1]: 17
IC50 [1]: 440 µM
ID/50 (recalculated as ppm F) [2]: 29
IC50 [2]: 740 µM
ID/50 (recalculated as ppm F) [3]: 87
IC50 [3]: 2280 µM
ID/50 (recalculated as ppm F) [4]: 93
IC50 [4]: 2450 µM
ID/50 (recalculated as ppm F) [5]: 56
IC50 [5]: 1500 µM
ID/50 (recalculated as ppm F) [6]: 32
IC50 [6]: 840 µM
ID/50 (recalculated as ppm F) [7]: 113
IC50 [7]: 2970 µM
